Biological target: T1, human ferroportin (Homo sapiens, UniProt Q9NP59)
T1 construct: luciferase reporter (read with the Nano-Glo Luciferase Assay System); expressed in transfected cells; host or cells: CHO cells, stably transfected, expression induced with doxycycline
T1 sequence (Q9NP59 1-571): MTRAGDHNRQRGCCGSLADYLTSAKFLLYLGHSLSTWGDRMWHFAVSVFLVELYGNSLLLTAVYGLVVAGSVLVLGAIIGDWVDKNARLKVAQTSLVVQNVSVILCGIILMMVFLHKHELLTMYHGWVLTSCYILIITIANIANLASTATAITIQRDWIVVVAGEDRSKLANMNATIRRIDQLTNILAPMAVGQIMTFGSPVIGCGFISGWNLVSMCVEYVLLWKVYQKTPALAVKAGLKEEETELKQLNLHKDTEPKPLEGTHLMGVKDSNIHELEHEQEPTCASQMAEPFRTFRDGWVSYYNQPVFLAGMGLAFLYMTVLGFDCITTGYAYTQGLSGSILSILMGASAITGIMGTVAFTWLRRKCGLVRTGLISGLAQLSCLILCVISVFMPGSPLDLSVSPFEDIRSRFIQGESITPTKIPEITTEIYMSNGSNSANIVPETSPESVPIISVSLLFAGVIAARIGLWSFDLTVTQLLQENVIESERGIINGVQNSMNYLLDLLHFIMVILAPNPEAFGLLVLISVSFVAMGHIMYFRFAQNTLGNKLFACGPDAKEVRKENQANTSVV
Test: Biological in-vitro ferroportin internalization assay (luciferase reporter)
Assay type: cell-based
Settings: average pEC50; stably-transfected CHO cell line expressing human ferroportin tagged to a luciferase reporter; 6 h incubation with test compound
In short: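 Read-out is Nano-Glo luciferase signal after 6 h compound exposure, with average pEC50 derived. Cells are a stable CHO line carrying luciferase-tagged human ferroportin, pre-loaded 24 h with ferric ammonium citrate and doxycycline-induced for 24 h.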

SMILES	pEC50
CN(C)CCOc1ccnc(-c2nc3c(c(N(C)CC(=O)N[C@@H]4CCOC4)n2)CCC3)c1 [Compound 424, 2-[(2-{4-[2-(dimethylamino)ethoxy]pyridin-2-yl}-5H,6H,7H-cyclopenta[d]pyrimidin-4-yl)(methyl)amino]-N-[(3R)-oxolan-3-yl]acetamide]	7
CN(CC(=O)Nc1ccccc1)c1nc(-c2ccccn2)nc2c1CCC2 [Compound 77, 2-{methyl[2-(pyridin-2-yl)-5H,6H,7H-cyclopenta[d]pyrimidin-4-yl]amino}-N-phenylacetamide]	7
c1ccc(-c2nc3c(c(N4CCCO[C@H]5CCC[C@@H]54)n2)CCC3)nc1 [Compound 18, 2-{4-[(5aS,8aS)-octahydro-2H-cyclopenta[b][1,4]oxazepin-5-yl]-5H,6H,7H-cyclopenta[d]pyrimidin-2-yl}pyridine]	7.1
CN(CC(=O)N1CCCCC1)c1nc(-c2cc(OCC(C)(C)O)ccn2)nc2c1CCC2 [Compound 382, 2-({2-[4-(2-hydroxy-2-methylpropoxy)pyridin-2-yl]-5H,6H,7H-cyclopenta[d]pyrimidin-4-yl}(methyl)amino)-1-(piperidin-1-yl)ethan-1-oneide]	7.8
CN(CC(=O)NC1(C)CCCC1)c1nc(-c2cc3cn[nH]c3cn2)nc2c1CCC2 [Compound 184, 2-[methyl(2-{1H-pyrazolo[3,4-c]pyridin-5-yl}-5H,6H,7H-cyclopenta[d]pyrimidin-4-yl)amino]-N-(1-methylcyclopentyl)acetamide]	7.7
COc1ccc(NC(=O)CN(C)c2nc(-c3cc(OC)ccn3)nc3c2CCC3)nc1 [Compound 152, N-(5-methoxypyridin-2-yl)-2-{[2-(4-methoxypyridin-2-yl)-5H,6H,7H-cyclopenta[d]pyrimidin-4-yl](methyl)amino}acetamide]	7.9
CN(CC(=O)NC(C)(C)C)c1nc(-c2cc3scnc3cn2)nc2c1CCC2 [Compound 301, N-tert-butyl-2-[methyl(2-{[1,3]thiazolo[4,5-c]pyridin-6-yl}-5H,6H,7H-cyclopenta[d]pyrimidin-4-yl)amino]acetamide]	6.9
CN(CC(=O)NC(C)(C)C)c1nc(-c2cc(OCC(O)CO)ccn2)nc2c1CCC2 (stereo in doubt) [Compound 415, N-tert-butyl-2-[(2-{4-[(2R)-2,3-dihydroxypropoxy]pyridin-2-yl}-5H,6H,7H-cyclopenta[d]pyrimidin-4-yl)(methyl)amino]acetamidede]	7.7
COc1ccc(NC(=O)CN(C)c2nc(-c3cc(O[C@H]4CCOC4)ccn3)nc3c2CCC3)cn1 [Compound 347]	7.6
CN(CC(=O)NC(C)(C)C)c1nc(-c2c[nH]cn2)nc2c1CCC2 [Compound 182, N-tert-butyl-2-{[2-(1H-imidazol-4-yl)-5H,6H,7H-cyclopenta[d]pyrimidin-4-yl](methyl)amino}acetamide]	7.6
CN(CC(=O)NC(C)(C)C)c1nc(-c2cn(CCO)cn2)nc2c1CCC2 [Compound 195, N-tert-butyl-2-({2-[1-(2-hydroxyethyl)-1H-imidazol-4-yl]-5H,6H,7H-cyclopenta[d]pyrimidin-4-yl}(methyl)amino)acetamide]	6.9
CN(CC(=O)Nc1cccc(F)c1)c1nc(-c2cc(OCC(C)(C)O)ccn2)nc2c1CCC2 [Compound 280, N-(3-fluorophenyl)-2-({2-[4-(2-hydroxy-2-methylpropoxy)pyridin-2-yl]-5H,6H,7H-cyclopenta[d]pyrimidin-4-yl}(methyl)amino)acetamide]	8.3
CC(C)NC(=O)CN(C)c1nc(-c2cc(OCC(C)(C)O)ccn2)nc2c1C(C)(C)CC2 [Compound 439, 2-({2-[4-(2-hydroxy-2-methylpropoxy)pyridin-2-yl]-5,5-dimethyl-5H,6H,7H-cyclopenta[d]pyrimidin-4-yl}(methyl)amino)-N-(propan-2-yl)acetamide]	7.8
COc1ccc(NC(=O)CN(C)c2nc(-c3cc(OCC4CC4)ccn3)nc3c2CCC3)cn1 [Compound 224, 2-({2-[4-(cyclopropylmethoxy)pyridin-2-yl]-5H,6H,7H-cyclopenta[d]pyrimidin-4-yl}(methyl)amino)-N-(6-methoxypyridin-3-yl)acetamide]	7.9
CN(CC(=O)Nc1ccc(F)nc1)c1nc(-c2cc(OC(F)F)ccn2)nc2c1CCC2 [Compound 216, 2-({2-[4-(difluoromethoxy)pyridin-2-yl]-5H,6H,7H-cyclopenta[d]pyrimidin-4-yl}(methyl)amino)-N-(6-fluoropyridin-3-yl)acetamide]	6.6
CCn1cnc(-c2nc3c(c(N(C)CC(=O)NC(C)(C)C)n2)CCC3)c1 [Compound 193, N-tert-butyl-2-{[2-(1-ethyl-1H-imidazol-4-yl)-5H,6H,7H-cyclopenta[d]pyrimidin-4-yl](methyl)amino}acetamide]	6.8
CC(=O)NCCOc1ccnc(-c2nc3c(c(N(C)CC(=O)Nc4cccc(F)c4)n2)CCC3)c1 [Compound 356, 2-({2-[4-(2-acetamidoethoxy)pyridin-2-yl]-5H,6H,7H-cyclopenta[d]pyrimidin-4-yl}(methyl)amino)-N-(3-fluorophenyl)acetamide]	8.3
Cc1ncc(NC(=O)CN(C)c2nc(-c3cc(OCCO)ccn3)nc3c2CCC3)cn1 [Compound 291, 2-({2-[4-(2-hydroxyethoxy)pyridin-2-yl]-5H,6H,7H-cyclopenta[d]pyrimidin-4-yl}(methyl)amino)-N-(2-methylpyrimidin-5-yl)acetamide]	7.3
CN(CC(=O)NC1CCOCC1)c1nc(-c2ccccn2)nc2c1CCC2 [Compound 79, 2-{methyl[2-(pyridin-2-yl)-5H,6H,7H-cyclopenta[d]pyrimidin-4-yl]amino}-N-(oxan-4-yl)acetamide]	6.5
C[C@H](C(=O)Nc1ccnnc1)N(C)c1nc(-c2cc3ccccc3cn2)nc2c1CCC2 [Compound 273, (2R)-2-{[2-(isoquinolin-3-yl)-5H,6H,7H-cyclopenta[d]pyrimidin-4-yl](methyl)amino}-N-(pyridazin-4-yl)propanamide]	7.8
C[C@@H]1C[C@@H](Oc2ccnc(-c3nc4c(c(N(C)CC(=O)NC(C)(C)C)n3)CCC4)c2)CN1C [Compound 488, N-tert-butyl-2-{[2-(4-{[(3R,5R)-1,5-dimethylpyrrolidin-3-yl]oxy}pyridin-2-yl)-5H,6H,7H-cyclopenta[d]pyrimidin-4-yl](methyl)amino}acetamide]	7.8
CCOc1ccnc(-c2nc3c(c(N(C)CC(=O)NC(C)(C)C)n2)CCC3)c1 [Compound 467, N-tert-butyl-2-{[2-(4-ethoxypyridin-2-yl)-5H,6H,7H-cyclopenta[d]pyrimidin-4-yl](methyl)amino}acetamide]	8.3
CN(CC(=O)Nc1cnn(C)c1)c1nc(-c2cc(OCC(F)(F)F)ccn2)nc2c1CCC2 [Compound 177, 2-[methyl({2-[4-(2,2,2-trifluoroethoxy)pyridin-2-yl]-5H,6H,7H-cyclopenta[d]pyrimidin-4-yl})amino]-N-(1-methyl-1H-pyrazol-4-yl)acetamide]	6.9
CC(C)NC(=O)[C@@H](C)N(C)c1nc(-c2cc(O[C@@H]3CCN(C)C3)ccn2)nc2c1CCC2 [Compound 504, (2R)-2-{methyl[2-(4-{[(3R)-1-methylpyrrolidin-3-yl]oxy}pyridin-2-yl)-5H,6H,7H-cyclopenta[d]pyrimidin-4-yl]amino}-N-(propan-2-yl)propanamide]	7.9
CN(c1nc(-c2cc(OCCO)ccn2)nc2c1CCC2)[C@H]1CCCN(c2cccc(F)c2)C1=O [Compound 320, (3S)-1-(3-fluorophenyl)-3-({2-[4-(2-hydroxyethoxy)pyridin-2-yl]-5H,6H,7H-cyclopenta[d]pyrimidin-4-yl}(methyl)amino)piperidin-2-one]	7.1
O=C1CCCCCN1c1nc(-c2ccccn2)nc2c1CCC2 [Compound 46, 1-[2-(pyridin-2-yl)-5H,6H,7H-cyclopenta[d]pyrimidin-4-yl]azepan-2-one]	5.1
CN(CC(=O)NC(C)(C)C)c1nc(-c2cc(OCCOc3cccnn3)ccn2)nc2c1CCC2 [Compound 468, N-tert-butyl-2-[methyl(2-{4-[2-(pyridazin-3-yloxy)ethoxy]pyridin-2-yl}-5H,6H,7H-cyclopenta[d]pyrimidin-4-yl)amino]acetamide]	8.5
CC(C)(C)NC(=O)CNc1nc(-c2ncccn2)nc2c1CCC2 [Compound 33, N-tert-butyl-2-{[2-(pyrimidin-2-yl)-5H,6H,7H-cyclopenta[d]pyrimidin-4-yl]amino}acetamide]	5.7
CCNC(=O)CN(C)c1nc(-c2cc(OCC3(O)CC3)ccn2)nc2c1CCC2 [Compound 441, N-ethyl-2-[(2-{4-[(1-hydroxycyclopropyl)methoxy]pyridin-2-yl}-5H,6H,7H-cyclopenta[d]pyrimidin-4-yl)(methyl)amino]acetamide]	7.5
CN(Cc1ncccn1)c1nc(-c2ccccn2)nc2c1CCC2 [Compound 81, N-methyl-2-(pyridin-2-yl)-N-[(pyrimidin-2-yl)methyl]-5H,6H,7H-cyclopenta[d]pyrimidin-4-amine]	6.8
